In patent US11965894B2, “Method of diagnosis of drug induced liver injury” (BIOPREDICTIVE, priority 2017, dated 2024):

Legend:
[1] = Serum miR-122 by LNA-based relative quantitative PCR in DILI cases; type: in vivo, human
Experimental: Total RNA, including miRNA was extracted from 200 μl of serum, using a commercial column-based system (Exiqon, Denmark) following the manufacturer's instructions. RNA synthetic control templates (Exiqon, Denmark) were introduced to provide controls for the quality of the RNA isolation. Serum levels of miR-122 and nine endogenous miRNAs as potential candidates for reference miRNAs were assayed using the Locked Nucleic Acid (LNA™)-based miRNA relative quantitative PCR with a SYBR® Green detection. cDNA synthesis and real time PCR were performed using the miRCURY LNA™ Universal RT cDNA Synthesis Kit (Exiqon, Denmark) and miRCURY LNA™ Universal RT microRNA PCR system (Exiqon), respectively. Two additional RNA spike-ins were also introduced to provide controls for the cDNA synthesis reaction and the PCR. Quantitative PCR was done on the LightCycler® 480 (Roche Applied Science) according to the manufacturer's instructions. The amplification curves were analyzed using the Roche LC software, both for the determination of cycle threshold (Ct) and for melting curve analysis. Ct values were then processed using the analysis software GenEx® (MultiD Analysis AB). […] Ct values for miR-122 were normalized with Ct value of miR-23a-3p. Levels of serum miR-122 were expressed in relative quantities calculated by the equation 2^−ΔCt.

[2] = FibroTest and ActiTest scores in DILI cases; type: in vivo, human; conditions: for FibroTest: single followed DILI case
Experimental: The Fibrotest® combines five markers: alpha2-macroglobulin, haptoglobin, apolipoprotein A2, total bilirubin and gamma-glutamyl transpeptidase (GGT), and adjusts with sex and age. […] It is performed in vitro on a biological sample (blood or serum) that has been harvested from a patient.
The ActiTest is calculated using an original combination of six highly concentrated biochemical markers, which are easy to assess. The ActiTest offers a non invasive alternative for measuring necro inflammatory activity in patients with chronic hepatitis C or B. The ActiTest combines alpha2-macroglobulin, haptoglobin, apolipoprotein A1, total bilirubin, GGT, and ALT, parameters adjusted for patient's age and gender.

[3] = healthy volunteers receiving the drug, ref [13]; cited from earlier work
[4] = in vivo
Experimental: Measures of biochemical markers were performed accordingly to the art, and analyses of ActiTest® and FibroTest® were made as described in the art and in WO 2002/016949.
Comparisons between medians (95% confidence interval [CI]) used the Mann-Whitney test with Bonferroni correction, and the Tukey-Kramer multiple comparison procedure for analyses of variance of the three repeated measures. Correlation between test values was estimated using the Pearson coefficient, expressed with a 95% CI; according to the number of comparisons, only a P value <0.01 was considered significant. NCSS-9 software was used.

[5] = DILI cases attributed to the drug, at inclusion

## CC(=O)Nc1ccc(O)cc1 [APAP, acetaminophen]
[1]; DILI cases, at baseline
  miR-122 compared with MTX cases: significantly lower
[1]; single DILI case with severe malnutrition
  miR-122 (lowest): −0.8
[2]; [5]
  ActiTest median: 0.99
[2]; at 8-12 weeks
  FibroTest: 0.53
[2]; one month later
  FibroTest: 0.47
[3]
  ApoA1 regulation in ALT responders compared with ALT non-responders: three-fold down-regulation

## CN(Cc1cnc2nc(N)nc(N)c2n1)c1ccc(C(=O)N[C@@H](CCC(=O)O)C(=O)O)cc1 [methotrexate]
[4]
  GGT dynamics compared with other drugs: no decrease
[1]; serum, DILI cases attributed to the drug, at inclusion, relative quantities normalized with miR-23a-3p
  miR-122 median: 7.54
[2]; 877 days later
  FibroTest: 0.52
[2]; at 8-12 weeks
  FibroTest: 0.51

## CCN1CCN(C(=O)N[C@@H](C(=O)N[C@@H]2C(=O)N3[C@@H]2SC(C)(C)[C@@H]3C(=O)O)c2ccccc2)C(=O)C1=O [piperacillin, piperacillin-tazobactam]
[4]
  GGT median: 678 IU/L

## CCOC(=O)Nc1ccc(NCc2ccc(F)cc2)nc1N [flupirtine]
[4]
  ApoA1 compared with normal ranges observed with methotrexate and others: dramatic decrease
  ApoA1 evolution compared with HAPTO: much quicker normalization
  ApoA1 median: 0.27 g/L
  BILI compared with normal ranges observed with methotrexate and others: dramatic increase
  BILI median: 335 µmol/L
  HAPTO compared with normal ranges observed with methotrexate and others: dramatic decrease
  HAPTO median: 0.10 g/L
[2]; [5]
  FibroTest median: 0.99
